According to article PMC11284787, “Ligand-Directed Labeling of the Adenosine A1 Receptor in Living Cells” (Journal of Medicinal Chemistry, 2024):

Experiments:
[1] = molecular target: T1, NL-hA2BAR (Homo sapiens, UniProt P29275); experiment: NanoBRET saturation ligand-binding assay, NL-hA2BAR
T1 construct: expressed in transfected cells
T1 sequence (P29275 1-332): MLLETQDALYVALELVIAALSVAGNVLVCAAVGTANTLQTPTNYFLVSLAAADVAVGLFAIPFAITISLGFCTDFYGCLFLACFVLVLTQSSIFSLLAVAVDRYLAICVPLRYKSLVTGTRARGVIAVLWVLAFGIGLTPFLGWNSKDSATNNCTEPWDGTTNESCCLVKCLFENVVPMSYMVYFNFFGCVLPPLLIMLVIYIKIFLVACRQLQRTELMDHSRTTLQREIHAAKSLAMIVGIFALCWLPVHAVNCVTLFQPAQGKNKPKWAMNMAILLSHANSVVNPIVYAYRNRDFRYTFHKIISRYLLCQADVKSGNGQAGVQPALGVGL
Method: Probes 11 and 12 were further evaluated for their ability to bind the other three adenosine receptor subtypes (NL-A2AAR, NL-A2BAR, and NL-A3AR), and their ligand-binding properties were quantified in the NanoBRET saturation and inhibition binding assays, respectively (Table 1 and Figure 4).
NanoBRET binding assay. All NanoBRET experiments were performed in white flat […]
(§1) 37 °C for kinetic binding experiments. Emissions were read at 420 nm (80 nm bandpass; […]
the SulfoCy5-labelled probe. […]
nm emission by the 420 nm emission. The term “raw BRET ratio” refers to the unprocessed data as no background ratio has been subtracted. In all NanoBRET binding […]
competitive antagonist selective for the adenosine receptor under investigation […]
MRS1220 for the A3AR). HEK293T cells stably/transiently expressing Nluc-AR were […]
were incubated for 1 h at 37 °C. […]
NanoBRET saturation binding assay. Total and nonspecific saturation binding curves were fit simultaneously using the following equation:
BRET ratio = Bmax[B] + M(B) + C […]
Uninhibited specific binding = 100 ― 100 x [A]

[2] = system: T2, rat NL-A1AR; experiment: NanoBRET dissociation kinetics, rat NL-A1AR HEK293 cells; format: binding; settings: rat NL-A1AR HEK293 cells prelabeled with 250 nM, 10 μM DPCPX
T2 construct: expressed in transfected cells
Method: Figure 3 Molecular pharmacology and biochemical characterization of 11 and 12. NanoBRET ligand-binding data were measured in HEK293 cells stably expressing the human NL-A1AR (A–C) or rat NL-A1AR (D–F). […] Data were normalized to maximal BRET signals in the absence of unlabeled competing ligands (total binding, TB). (C, F) NanoBRET dissociation kinetics experiments with 11 (SulfoCy5) performed in human and rat NL-A1AR HEK293T cells, respectively. Cells were treated with 250 nM 11 (SulfoCy5, lilac open circles) for 5 h and CA200645 (black open triangles) for 2 h. […] Each data point represents the combined mean ± SEM from n = 5 (A, C), n = 4 (B, D), and n = 3 (E, F) experiments, each one performed in triplicate. (G) HEK293G cells stably expressing TS-SNAP-A1AR were treated with 300 nM 11 or 130 nM 12 in serum-free media for 2 h at 37 °C and 5% CO2. For samples treated with compound 12, the labeling solution was removed and immediately replaced with 10 mL of serum-free media containing 1 μM Met-Tet-Cy5 and incubated at 37 °C and 5% CO2 for a further 15 min. Untreated cells were used as a control. TS-SNAP-A1AR was purified and separated on an SDS-PAGEgel gel, and direct Cy5 fluorescence was visualized using in-gel fluorescence. The gel shown is representative of three independent experiments. […]
as §1

[3] = molecular target: T3, NL-hA1AR (Homo sapiens, UniProt P30542); experiment: NanoBRET dissociation kinetics, NL-hA1AR HEK293T cells; format: binding; settings: cells prelabeled with 250 nM for 5 h, BRET monitored 60 min
T3 construct: expressed in transfected cells
T3 sequence (P30542 1-326): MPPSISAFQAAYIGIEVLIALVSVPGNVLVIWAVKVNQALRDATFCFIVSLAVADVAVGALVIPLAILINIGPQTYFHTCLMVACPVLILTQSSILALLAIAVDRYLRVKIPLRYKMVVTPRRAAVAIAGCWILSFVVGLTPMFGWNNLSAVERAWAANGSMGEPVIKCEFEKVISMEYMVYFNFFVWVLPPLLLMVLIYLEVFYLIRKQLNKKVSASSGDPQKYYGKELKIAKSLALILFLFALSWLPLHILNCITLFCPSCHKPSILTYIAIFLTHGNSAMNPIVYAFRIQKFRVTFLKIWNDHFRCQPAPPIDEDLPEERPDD
Method: Figure 3 Molecular pharmacology and biochemical characterization of 11 and 12. NanoBRET ligand-binding data were measured in HEK293 cells stably expressing the human NL-A1AR (A–C) or rat NL-A1AR (D–F). […] Data were normalized to maximal BRET signals in the absence of unlabeled competing ligands (total binding, TB). (C, F) NanoBRET dissociation kinetics experiments with 11 (SulfoCy5) performed in human and rat NL-A1AR HEK293T cells, respectively. Cells were treated with 250 nM 11 (SulfoCy5, lilac open circles) for 5 h and CA200645 (black open triangles) for 2 h. […] TS-SNAP-A1AR was purified and separated on an SDS-PAGEgel gel, and direct Cy5 fluorescence was visualized using in-gel fluorescence. […]
The small reduction in the BRET signal observed toward the end of the reads could be mostly likely ascribed to substrate (furimazine) consumption. […] To confirm covalent labeling of A1AR by 11 and 12, HEK293G cells stably expressing a Twin-Strep-SNAP-A1AR(TS-SNAP-A1R) construct were treated with 11 or 12 prior to purification, separation by sodium dodecyl sulfate-polyacrylamide gel electrophoresis (SDS-PAGE) and visualization of labeled samples by in-gel fluorescence (Figure 3G). […]
as §1

[4] = molecular target: T1, NL-hA2BAR; experiment: NanoBRET competition ligand-binding assay (CA200645 tracer), NL-hA2BAR; settings: CA200645 (25 nM) tracer, HEK293T cells, mean ± SEM; read-out: affinity values pKi, NL-hA2BAR (converted)

| SMILES | Kd ([1]; HEK293T cells stably expressing NL-hA2BAR, read-out: affinity values pKD, NL-hA2BAR (converted)) | BRET signal detected at NL-A2BAR ([1]; concentrations tested 0–500 nM) | ability to covalently transfer the fluorophore to the A1AR (dissociation experiment) [2] | change in BRET signal after addition of 10 μM DPCPX [3] | Ki [4] |
| --- | --- | --- | --- | --- | --- |
| CCCCn1c(=O)c2[nH]c(C34CCC(C(=O)NCCNC(=O)CCNC(=O)c5ccc(OC(=O)CCCCC[N+]6=C(/C=C/C=C/C=C7/N(C)c8ccc(S(=O)(=O)O)cc8C7(C)C)C(C)(C)c7cc(S(=O)(=O)[O-])ccc76)c(F)c5)(CC3)CC4)nc2n(CCCC)c1=O [Compound 11, 1-(6-(4-((3-((2-(4-(1,3-Dibutyl-2,6-dioxo-2,3,6,7-tetrahydro-1H-purin-8-yl)bicyclo[2.2.2]octane-1-carboxamido)ethyl)amino)-3-oxopropyl)carbamoyl)-2-fluorophenoxy)-6-oxohexyl)-3,3-dimethyl-2-((1E,3E)-5-((E)-1,3,3-trimethyl-5-sulfoindolin-2-ylidene)penta-1,3-dien-1-yl)-3H-indol-1-ium-5-sulfonate] | > 1000 nM | minimal BRET signal | could be retained across species | very little change in the BRET signal |  |
| CCCCn1c(=O)c2[nH]c(C34CCC(C(=O)NCCNC(=O)CCNC(=O)c5ccc(OC(=O)CCC(=O)NCCOCCOCCNC(=O)O[C@H]6CC/C=C/CCC6)c(F)c5)(CC3)CC4)nc2n(CCCC)c1=O [Compound 12, 4-((3-((2-(4-(1,3-Dibutyl-2,6-dioxo-2,3,6,7-tetrahydro-1H-purin-8-yl)bicyclo[2.2.2]octane-1-carboxamido)ethyl)amino)-3-oxopropyl)carbamoyl)-2-fluorophenyl (R,E)-1-(Cyclooct-4-en-1-yloxy)-1,12-dioxo-5,8-dioxa-2,11-diazapentadecan-15-oate] |  |  |  |  | 813 nM |
